Test results as given in US6743913B2, “Pyrrolothiazine and pyrrolothiazepine compounds having serotonin-2 receptor antagonistic and α-1-blocking action” (Daiichi Suntory Pharma Co., Ltd., priority 1997, dated 2004).

Legend:
α1 receptors = assay: Anti-α1 action: norepinephrine-induced tonic contraction of isolated thoracic aorta; conditions: tonic contraction by 10^−5 M norepinephrine taken as 100%, guinea pig thoracic aorta
Procedure: The thoracic aorta of each Hartley male guinea pig (body weight: 300-500 g) was excised. A preparation cut in a helical form was suspended under 1 g load in a Magnus cylinder filled with the Tyrode solution which had been aerated with a gas mixture of 95% O2 and 5% CO2 and maintained at 37° C. Using an isometric transducer (“TB-612J”, manufactured by Nihon Kohden Corporation) and a pressure preamplifier (“AP-620G”, manufactured by Nihon Kohden Corporation), variations in tension were measured. The isometric tensions were recorded on a thermal pen-writing recorder (“WT-647G”, manufactured by Nihon Kohden Corporation). Taking the tonic contraction induced by 10^−5 M norepinephrine (NE) as 100%, the percent contractions upon addition of each test drug at 10^−8 M and 10^−7 M were determined and recorded as α1 action.

serotonin-2 receptors = assay: Anti-serotonin (5-HT) action: 5-HT-induced contraction of isolated superior mesenteric artery; conditions: contraction by 10^−5 M 5-HT taken as 100%, guinea pig superior mesenteric artery
Procedure: (2) Anti-serotonin (5-HT) Action
A preparation cut in a helical form was suspended under resting tension of 0.3 g in a Magnus cylinder filled with the Tyrode solution which had been aerated with a gas mixture of 95% O2 and 5% CO2 and maintained at 37° C. Using an isometric transducer (“UL-10”, manufactured by SHINKOH K.K.) and a pressure preamplifier (“DSA-605A”, manufactured by SHINKOH K.K.), variations in tension were measured. The isometric tensions were recorded on a pen-writing recorder (“VP-6537A”, manufactured by NATIONAL K.K.). Taking the contraction induced by 10^−5 M serotonin (5-HT) as 100%, the percent contractions by 10^−5 M 5-HT in the presence of each test drug at 10^−7 M and 10^−6 M were determined as anti-5-HT action.

| SMILES | Anti α1 action (% of Control) (α1 receptors; test drug 10^−7 M) | Anti α1 action (% of Control) (α1 receptors; test drug 10^−8 M) | Anti 5-HT action (% of Control) (serotonin-2 receptors; test drug 10^−6 M) | Anti 5-HT action (% of Control) (serotonin-2 receptors; test drug 10^−7 M) |
| --- | --- | --- | --- | --- |
| CN1CC(=O)c2c(ccn2CCCCN2CCC(C(=O)c3ccc(F)cc3)CC2)S1(=O)=O [Compound 22, 5-[4-[4-(4-fluorobenzoyl)piperidino]butyl]-2-methyl-2,3,4,5-tetrahydropyrrolo[2,3-e][1,2]thiazin-4-one 1,1-dioxide] | 43.2 % of Control | 66.6 % of Control | 41.1 % of Control | 80.4 % of Control |
| CN1CC(=NO)c2c(ccn2CCCCN2CCC(C(=O)c3ccc(F)cc3)CC2)S1(=O)=O [Compound 28, 5-[4-[4-(4-fluorobenzoyl)piperidino]-butyl]-4-hydroxyimino-2-methyl-2,3,4,5-tetrahydropyrrolo[2,3-e][1,2]thiazine 1,1-dioxide] | 45.8 % of Control | 80.0 % of Control | 30.2 % of Control | 73.5 % of Control |
| CN1CCC(=NO)c2c(ccn2CCCCN2CCC(C(=O)c3ccc(F)cc3)CC2)S1(=O)=O [Compound 29, 6-[4-[4-(4-fluorobenzoyl)piperidino]-butyl]-5-hydroxyimino-2-methyl-3,4,5,6-tetrahydro-2H-pyrrolo[2,3-f][1,2]thiazepine 1,1-dioxide] | 33.4 % of Control | 83.1 % of Control | 32.5 % of Control | 79.0 % of Control |
